Measurements reported in patent US11149046B2, “Antibacterial sideromycins” (Hsiri Therapeutics, Inc., priority 2014, dated 2021).
In brackets after ≈: the same amount, converted by molar mass. Entries after “also recorded” stand apart in the source; their conditions may differ. Read-outs that look alike come from different tables or passages of the source.

Columns and labels:
[1] = system: Acinetobacter baumannii ATCC 17961; assay: Agar diffusion (Kirby-Bauer) assay, with and without hydrogel; format: cell-based; settings: Acinetobacter; FIG. 8, 9, 10
Source text: (§1) Table 3 that was included in the first Example 4 section provides antibacterial data for the first synthetic sideromycins we prepared and studied. The second Example 4 section elaborated and expanded on that data with inclusion of representative antibacterial data in the text and associated pictures of Petri dish assays. MIC (minimum inhibition concentration) is given in μM and AD (agar diffusion zones of inhibition are given in mm from Kirby-Bauer Petri dish growth inhibition studies).
We investigated whether the sideromycin absorbed in the gel be able to diffuse out of the gel and into the agar to effect antibacterial growth. As a control, the sideromycin alone, without gel, was added in a separate 9 mm well, as usual.
The second question was whether the sideromycin continue to be released and be able to effect bacterial growth inhibition over extended periods. Thus, additional identical agar plates were prepared and stored at 4° C. for 24, 48 and 72 hours to allow diffusion of the sideromycin (control and gel forms) into the agar before allowing the bacteria to grow in an incubator. Then after each time period, the Petri dishes were incubated at 37° C. for 20 hours to promote bacteria growth in the agar. […] The study has been extended to as long as 168 hours (one week) with retention of antibiotic effectiveness.

[2] = system: Pseudomonas aeruginosa KW799/wt; assay: Agar diffusion (Kirby-Bauer) assay; format: cell-based; settings: wild type Pseudomonas; FIG. 8, 9, 12
Source text: as §1

A. baumannii ATCC 17961 = assay: MIC determination; format: cell-based, Acinetobacter baumannii; settings: read-out: MIC
Summary of the method: (§2)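 Conjugates tested for antibacterial activity. Lowest concentration inhibiting growth recorded in μM. Plate-based Kirby-Bauer diffusion scored by inhibition zone, mm.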

[3] = system: Pa-Da-1304 CF patient isolate; assay: MIC determination; format: cell-based, Pseudomonas aeruginosa
Source text: (§3) MIC (minimum inhibition concentration) is given in μM and AD (agar diffusion zones of inhibition are given in mm from Kirby-Bauer Petri dish growth inhibition studies).
We obtained a clinical isolate of Pseudomonas from a cystic fibrosis patient.

A. baumannii BAA1800 = assay: Antibacterial activity of MG-1-189 and sulbactam; settings: single agent
Pa6 = assay: MIC determination; format: cell-based, Pseudomonas aeruginosa; settings: Table 5; read-out: MIC
Source text: as §3

[4] = system: Pseudomonas aeruginosa 01 (Pa01); assay: MIC determination; format: cell-based; settings: read-out: MIC
Summary of the method: as §2

A. baumannii BAA1793 = assay: Antibacterial activity of MG-1-189 and sulbactam; settings: single agent
[5] = system: Pseudomonas aeruginosa KW799/61; format: cell-based; settings: outer membrane permeable mutant; FIG. 9 center panel
Source text: as §3

P. aeruginosa KW799/wt = assay: MIC determination; format: cell-based, Pseudomonas aeruginosa; settings: read-out: MIC
Summary of the method: as §2

Pa4 = assay: MIC determination; format: cell-based, Pseudomonas aeruginosa; settings: Table 5
Summary of the method: as §2

A. baumannii BAA1710 = assay: Antibacterial activity of MG-1-189 and sulbactam; settings: single agent
A. baumannii BAA1797 = assay: Antibacterial activity of MG-1-189 and sulbactam; settings: single agent
[6] = system: P. aeruginosa KW799/61 (permeability mutant); assay: microbe, parasite or virus in culture; format: cell-based, Pseudomonas aeruginosa; settings: Table 5
Source text: as §3

Acinetobacter = assay: Murine Survival Experiment with Acinetobacter; format: in vivo; settings: 50 mg/kg IV at +30 min and +4 hr
Protocol: In vivo data for murine survival with Acinetobacter is shown in Table 9 below and graphically in FIG. 14. In the experiments, 10^8 Acinetobacter was administered IP at time 0 on Day 1, and antibiotic was administered twice IV at +30 min and +4 hr

`N[C@@H](C(=O)N[C@@H]1C(=O)N2C(C(=O)O)=C(Cl)CC[C@H]12)c1ccccc1` [loracarbef, reference compound] was tested, and the “zones of inhibition (in words)” value [1] was “inactive; also recorded: no inhibition”, the “zones of inhibition (in words)” value [2] was “inactive” and the MIC (A. baumannii ATCC 17961; Table 5, head prints A. baumannii only) was greater than 200 µM. For the same compound, the MIC (A. baumannii ATCC 17961; Table 7) was greater than 200 µM, the MIC ([3]; Table 5) was greater than 200 µM and the “susceptibility of the clinical isolate (in words)” value ([3]; preliminary tests) was “resistant”. The “Antibacterial activity (MIC)” value (A. baumannii BAA1800) was greater than 25 µM, the MIC (Pa6) was greater than 200 µM and the MIC ([4]; Table 5) was greater than 200 µM. The MIC ([4]; Table 7) was greater than 200 µM, the “Antibacterial activity (MIC)” value (A. baumannii BAA1793) was greater than 25 µM and the “zones of inhibition (in words)” value [5] was “very small zone of inhibition”. For the same compound, the MIC (P. aeruginosa KW799/wt; Table 5) was greater than 200 µM, the MIC (P. aeruginosa KW799/wt; Table 7) was greater than 200 µM and the MIC (Pa4) was greater than 200 µM. The “Antibacterial activity (MIC)” value (A. baumannii BAA1710) was greater than 25 µM, the “Antibacterial activity (MIC)” value (A. baumannii BAA1797) was greater than 25 µM and the MIC [6] was 50 µM (≈ 17.5 µg/mL). The “murine survival (surviving mice)” value (Acinetobacter; D 1, 10^8 Acinetobacter IP) was 6, the “murine survival (surviving mice)” value (Acinetobacter; D 2) was 2 and the “murine survival (surviving mice)” value (Acinetobacter; D 3) was 2. For the same compound, the “murine survival (surviving mice)” value (Acinetobacter; D 4) was 2, the “murine survival (surviving mice)” value (Acinetobacter; D 5) was 2 and the “murine survival (surviving mice)” value (Acinetobacter; D 6) was 2. The “murine survival (surviving mice)” value (Acinetobacter; D 7) was 2.
